Patent US5120851A, “Preparation process for making water-soluble lysine salts of (+)2-(4-fluorophenyl)-alpha-methyl-5-benzoxazole acetic acid” (Euroresearch S.r.l., priority 1988, dated 1992)
Structures can show the parent of a compound that is named as a salt.

Assays:
[1] = LD50 by the Litchfield-Wilcoxon method on mice, progressive oral doses; conditions: mouse, in vivo
Procedure: (§1) The LD50 was determined by the Litchfield-Wilcoxon method on mice using progressive oral doses. […] The paw volume is checked 2, 4 and 6 hours after inoculating the carrageen.

[2] = system: experimental edema induced by carrageen in a rat's paw; test: experimental edema induced by carrageen in a rat's paw; assay type: in vivo, rat (Sprague Dawley--Charles River); conditions: for TI (therapeutic index) LD50 /ED50: LD50 mice oral / ED50 rat paw edema; for ED50: Rattus norvegicus, rat paw carrageen edema, dosed 60 minutes before carrageen, paw volume at 2, 4 and 6 hours
Procedure: as §1

[3] = water-solubility at 20° C.; assay type: physicochemical
[4] = cited from earlier work
[5] = prior art statement; cited from earlier work

For C[C@H](C(=O)O)c1ccc2oc(-c3ccc(F)cc3)nc2c1 (racemic) [Example 1, salt of (+)2-(4-fluorophenyl)-alpha-methyl-5-benzoxazole acetic acid with DL-lysine], the LD50 ([1]; expressed as flunoxaprofen) was 720 mg/kg, the “TI (therapeutic index) LD50 /ED50” value ([2]; listed as Salt of flunoxaprofen with DL-lysine) was 129.96 and the ED50 ([2]; expressed as flunoxaprofen) was 5.54 mg/kg. It also gave a solubility ([3]; water) of 1000 mg/mL.

Work on O=C(O)Cc1ccccc1Nc1c(Cl)cccc1Cl [Diclofenac] yielded an ED50 [2] of 10 mg/kg.

For C[C@H](C(=O)O)c1ccc2oc(-c3ccc(F)cc3)nc2c1 [Example 2], the “water-solubility (in words)” value ([3]; compared with Example 1) was “as in Example 1”.

With C[C@H](C(=O)O)c1ccc2oc(-c3ccc(F)cc3)nc2c1 [Flunoxaprofen, (+)2-(4-fluorophenyl)-alpha-methyl-5-benzoxazole acetic acid] the LD50 [1] was 724 mg/kg, the “TI (therapeutic index) LD50 /ED50” value [2] was 121.18 and the ED50 [2] was 5.97 mg/kg. The “activity of the dextrorotatory form” value ([4]; Italian patent No. 1,080,779) was “particularly active”, the “anti-inflammatory, analgesic and antipyretic activity” value ([4]; J. Medic. Chem. 1975, vol 18, No. 1, pp 53-58) was “considerable anti-inflammatory, analgesic and antipyretic activity” and the water-solubility [5] was “very limited”.
